Experimental data from ChEMBL document CHEMBL1157437, “Synthesis and biological activities of reveromycin A and spirofungin A derivatives” (Bioorg Med Chem Lett, 2008).

Legend:
[1] = biological target: T1, Isoleucine--tRNA ligase, cytoplasmic (Homo sapiens, UniProt P41252); assay: Inhibition of IleRS
T1 sequence (P41252 whole entry): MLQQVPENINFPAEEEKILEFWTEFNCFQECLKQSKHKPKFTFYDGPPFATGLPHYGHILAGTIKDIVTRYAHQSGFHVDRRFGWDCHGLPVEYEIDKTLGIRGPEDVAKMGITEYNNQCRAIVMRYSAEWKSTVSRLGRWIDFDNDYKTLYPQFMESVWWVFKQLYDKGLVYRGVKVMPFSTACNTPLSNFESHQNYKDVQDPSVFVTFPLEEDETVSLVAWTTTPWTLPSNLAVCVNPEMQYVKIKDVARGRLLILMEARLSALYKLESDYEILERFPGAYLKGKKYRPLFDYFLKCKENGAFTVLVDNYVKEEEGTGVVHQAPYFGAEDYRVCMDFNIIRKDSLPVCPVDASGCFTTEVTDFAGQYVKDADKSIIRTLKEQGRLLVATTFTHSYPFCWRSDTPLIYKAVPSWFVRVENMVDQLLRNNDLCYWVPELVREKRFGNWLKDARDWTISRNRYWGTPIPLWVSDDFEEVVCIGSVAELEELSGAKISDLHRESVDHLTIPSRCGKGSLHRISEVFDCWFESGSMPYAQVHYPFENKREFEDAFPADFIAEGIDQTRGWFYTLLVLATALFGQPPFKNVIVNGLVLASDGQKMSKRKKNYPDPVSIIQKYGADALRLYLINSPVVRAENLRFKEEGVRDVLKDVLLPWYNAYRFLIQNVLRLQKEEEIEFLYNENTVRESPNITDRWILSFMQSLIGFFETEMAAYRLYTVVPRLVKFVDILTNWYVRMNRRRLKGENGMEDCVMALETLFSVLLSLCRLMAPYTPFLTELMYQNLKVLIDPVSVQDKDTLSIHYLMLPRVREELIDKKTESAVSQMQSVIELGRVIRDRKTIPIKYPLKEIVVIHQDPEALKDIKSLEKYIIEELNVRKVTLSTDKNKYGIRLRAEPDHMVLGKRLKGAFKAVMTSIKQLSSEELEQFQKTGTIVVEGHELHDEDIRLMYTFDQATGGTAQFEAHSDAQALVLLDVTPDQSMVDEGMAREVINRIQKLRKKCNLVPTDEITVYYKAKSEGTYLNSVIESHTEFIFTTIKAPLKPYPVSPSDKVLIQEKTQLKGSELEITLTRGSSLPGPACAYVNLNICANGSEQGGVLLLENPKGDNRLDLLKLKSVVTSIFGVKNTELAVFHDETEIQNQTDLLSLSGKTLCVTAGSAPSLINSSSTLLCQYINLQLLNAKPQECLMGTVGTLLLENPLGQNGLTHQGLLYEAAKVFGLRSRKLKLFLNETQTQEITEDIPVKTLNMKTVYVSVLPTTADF

NRK [2] = assay: Effect on morphological reversion in src transformed NRK cells at 100 ug/mL; format: functional; details: Rattus norvegicus
NRK [3] = assay: Effect on morphological reversion in src transformed NRK cells at 30 ug/mL; format: functional; details: Rattus norvegicus
NRK [4] = assay: Effect on morphological reversion in src transformed NRK cells at 10 ug/mL; format: functional; details: Rattus norvegicus
NRK [5] = assay: Effect on morphological reversion in src transformed NRK cells at 3 ug/mL; format: functional; details: Rattus norvegicus
Osteoclast = assay: Induction of apoptosis in mouse osteoclasts; format: functional

| Structure (SMILES) | IC50 [1] [nM] | inhibition at 100 µg/mL (NRK [2]) [%] | inhibition at 30 µg/mL (NRK [3]) [%] | inhibition at 10 µg/mL (NRK [4]) [%] | inhibition at 3 µg/mL (NRK [5]) [%] | Activity (Osteoclast) [µg/mL] |
| --- | --- | --- | --- | --- | --- | --- |
| CCCC[C@@]1(OC(=O)CCC(=O)O)CC[C@]2(CC[C@H](C)[C@@H](C/C=C(C)/C=C/[C@H](O)[C@@H](C)CCC(=O)O)O2)O[C@H]1/C=C/C(C)=C/C(=O)O [2,3-DIHYDROREVEROMYCIN A] | 17.5 | > 80 | 50 | 20 | 10 | 0.22 |
| CCCC[C@@]1(OC(=O)CCC(=O)O)CC[C@]2(CC[C@H](C)[C@@H](C/C=C(C)/C=C/[C@H](OC)[C@@H](C)/C=C/C(=O)O)O2)O[C@H]1/C=C/C(C)=C/C(=O)O | 554 | < 10 | – | – | < 10 | >15 |
| CCCC[C@@]1(OC)CC[C@]2(CC[C@H](C)[C@@H](C/C=C(C)/C=C/[C@H](O)[C@@H](C)/C=C/C(=O)O)O2)O[C@H]1/C=C/C(C)=C/C(=O)O | 101 | > 80 | > 80 | 20 | – | – |
| CCCC[C@@]1(OC(=O)CCC(=O)O)CC[C@]2(CC[C@H](C)[C@@H](C/C=C(C)/C=C/CO)O2)O[C@H]1/C=C/C(C)=C/C(=O)O | 996 | < 10 | < 10 | < 10 | < 10 | – |
| CCCC[C@@]1(OC(=O)CCC(=O)O)CC[C@]2(CC[C@H](C)[C@@H](CCO)O2)O[C@H]1/C=C/C(C)=C/C(=O)O | > 2010 | < 10 | < 10 | < 10 | < 10 | – |
| CCCC[C@@]1(OC(=O)CCC(=O)O)CC[C@]2(CC[C@H](C)[C@@H](C/C=C(\C)CO)O2)O[C@H]1/C=C/C(C)=C/C(=O)O | > 1860 | < 10 | < 10 | < 10 | < 10 | – |
| CCCC[C@@]1(OC(=O)CCC(=O)O)CC[C@]2(CC[C@H](C)[C@@H](C/C=C(\C)COC(=O)CCC(=O)O)O2)O[C@H]1/C=C/C(C)=C/C(=O)O | > 1570 | < 10 | < 10 | < 10 | < 10 | >15 |
| CCCC[C@@]1(OCSC)CC[C@]2(CC[C@H](C)[C@@H](C/C=C(C)/C=C/[C@H](O)[C@@H](C)/C=C/C(=O)O)O2)O[C@H]1/C=C/C(C)=C/C(=O)O | 801 | > 80 | 20 | < 10 | – | 9.6 |
| CCCC[C@@]1(OC(=O)CCC(=O)O)CC[C@]2(CC[C@H](C)[C@@H](C/C=C(C)/C=C/C(=O)O)O2)O[C@H]1/C=C/C(C)=C/C(=O)O | > 1730 | < 10 | < 10 | < 10 | < 10 | – |
| CCCC[C@]1([C@H](/C=C/C(C)=C/C(=O)O)OC(=O)CCC(=O)O)CC[C@]2(CC[C@H](C)[C@@H](C/C=C(C)/C=C/[C@H](O)[C@@H](C)/C=C/C(=O)O)O2)O1 [REVEROMYCIN B] | > 1510 | < 10 | – | – | < 10 | >15 |
| CCCC[C@@]1(OC(=O)CCC(=O)O)CC[C@]2(CC[C@H](C)[C@@H](C/C=C(C)/C=C/[C@H](O[Si](C)(C)C(C)(C)C)[C@@H](C)/C=C/C(=O)O)O2)O[C@H]1/C=C/C(C)=C/C(=O)O | > 1290 | < 10 | – | – | – | 5.9 |
| CCCC[C@@]1(O)CC[C@]2(CC[C@H](C)[C@@H](C/C=C(C)/C=C/[C@H](O)[C@@H](C)/C=C/C(=O)O)O2)O[C@H]1/C=C/C(C)=C/C(=O)O | 169 | < 10 | – | – | – | 11.5 |
